For data set [1], the target named is T1, mouse CCK2R (Mus musculus, UniProt P56481).
T1 sequence (P56481 1-453): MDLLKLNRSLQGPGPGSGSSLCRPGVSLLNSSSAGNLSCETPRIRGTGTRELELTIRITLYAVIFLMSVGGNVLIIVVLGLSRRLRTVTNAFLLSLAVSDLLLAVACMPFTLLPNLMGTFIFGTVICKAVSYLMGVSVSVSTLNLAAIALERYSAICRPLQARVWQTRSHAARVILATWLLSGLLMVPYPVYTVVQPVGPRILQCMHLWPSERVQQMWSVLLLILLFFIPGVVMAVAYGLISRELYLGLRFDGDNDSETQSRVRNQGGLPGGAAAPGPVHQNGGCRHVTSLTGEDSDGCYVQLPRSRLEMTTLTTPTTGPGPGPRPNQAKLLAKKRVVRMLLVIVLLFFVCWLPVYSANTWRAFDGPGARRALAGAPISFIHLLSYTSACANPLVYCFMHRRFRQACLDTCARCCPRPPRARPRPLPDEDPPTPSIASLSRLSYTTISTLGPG
The data set can be described thus: Inositol-1-phosphate (IP1) accumulation assay (HTRF) in HEK293 cells transiently expressing CCK2R. Particulars: for Antagonism of CCK-8-induced IP1 formation: antagonist 500 nM, preincubated 30 min at 37 °C, CCK-8 10 nM, Fig. S1b, n = 3-5; for IP1 formation (fold difference over baseline): positive control, n = 3-4; for Emax: HEK293, read-out: Maximum efficacy (Emax) at the CCK2R.
Description: Human embryonic kidney (HEK293) cells (Ref.[31]) were maintained in a fresh Dulbecco’s modified Eagle’s medium supplemented with 10% fetal bovine serum, 100 U/mL penicillin, and 100 µg/mL streptomycin in a humidified atmosphere of 5% CO2 at 37 °C. 2 mL of cell suspension was poured into each well of a 6-well plate and incubated overnight at 37 °C. After reaching to a confluency of 70–80%, the cells were transfected with a plasmid encoding EGFP-tagged CCK2R using the jetPRIME transfection reagent according to manufacturer’s instructions (Polyplus-transfection, USA).
The receptor-mediated activation of Gq-dependent signaling was measured using a homogenous time-resolved fluorescence (HTRF) based inositol-1-phosphate (IP1) assay kit (Cisbio, France). Approximately 3-6 × 10^4 HEK293 cells expressing the CCK2R were seeded into each well of a 96- or 384-well plate and incubated overnight at 37 °C. […] Antagonists YM-022 and LY225910 (500 nM or 1 µM, both Sigma -Aldrich, Austria) were preincubated at 37 °C for 30 min. After adding IP1-d2 conjugate and anti-IP1 Eu Cryptate according to manufacturers’ instructions, the plate was incubated at room temperature for 3 h. The HTRF measurement was carried out using the FlexStation 3 multi-mode microplate reader with excitation at 330 nm and emissions at 620 and 665 nm.
All experiments were performed in triplicate, analyzed using the GraphPad prism software (GraphPad Software, USA) and expressed as mean ± SD (standard deviation). Pharmacological data of concentration response curves were normalized to the maximal response of CCK-8 detected at the highest concentration. […] Single concentration efficacy data were normalized to baseline (assay buffer) and data were expressed as IP1 formation (fold difference over baseline).

Data set [2] concerns the target T2, mouse cholecystokinin-2 receptor, EGFP-tagged (mouse) (UniProt P56481).
T2 sequence: T1 sequence (P56481 1-453)

For data set [3], the system named is HEK293 cells. The data set can be described thus: Cell viability assay (Cell Counting Kit-8). The settings on record: 2 h incubation. Here is the method:
Effect on cell viability of plant extract was measured against the HEK293 cell line using the Cell Counting Kit-8 (VitaScientific, USA). Briefly, 100 µL of medium containing 1 × 10^4 cells was seeded in each well of a 96-well plate and incubated at 37 °C for 24 h. […] Finally, 10 µL of the kit reagent (final concentration of 10%, v/v) was added into each well and incubated at 37 °C for 3 h. Absorbance was measured at 450 nm using the FlexStation 3 multi-mode microplate reader (Molecular Devices, USA). Triton X-100 and medium were used as positive and negative controls, respectively. The cell viability (CV) percentage was calculated using the following equation: CV (%) = (AS/AC) × 100, whereas AS and AC are related to the absorbance of sample and negative control at 450 nm.

For data set [4], the target named is T2, mouse cholecystokinin-2 receptor, EGFP-tagged (mouse). This is another data set of the same source.

Read-outs that look alike come from different tables or passages of the source. Where a SMILES comes first, the peptide text is derived from it. Bridges are numbered along the chain shown (N, C = ends).

cholecystokinin-8, sequence (P06307 whole entry, looked up): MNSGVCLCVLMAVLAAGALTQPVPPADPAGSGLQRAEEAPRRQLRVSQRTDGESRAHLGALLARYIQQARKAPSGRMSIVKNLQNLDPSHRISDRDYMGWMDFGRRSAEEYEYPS

As to `CC(C)Oc1cccc(-n2c(CCc3c[nH]c4ccc(Br)cc34)nc3ccccc3c2=O)c1` [LY225910], the “Antagonism of CCK-8-induced IP1 formation” value in data set [1] is given as “did not displace the effects of endogenous ligand CCK-8”.
The same measure, in the same setting: the result for `Cc1cccc(NC(=O)N[C@@H]2N=C(c3ccccc3)c3ccccc3N(CC(=O)c3ccccc3C)C2=O)c1` [YM-022, (R)-1-[2,3-dihydro-1-(2'-methylphenacyl)-2-oxo-5-phenyl-1H-1,4-benzodiazepin-3-yl]-3-(3-methylphenyl) urea] reads “significant inhibition of the IP1 formation”.
For the molecule `CSCC[C@H](NC(=O)[C@H](Cc1ccc(OS(=O)(=O)O)cc1)NC(=O)[C@@H](N)CC(=O)O)C(=O)NCC(=O)N[C@@H](Cc1c[nH]c2ccccc12)C(=O)N[C@@H](CCSC)C(=O)N[C@@H](CC(=O)O)C(=O)N[C@@H](Cc1ccccc1)C(N)=O` [CCK-8, cholecystokinin-8], the “IP1 formation (fold difference over baseline)” value is 0.09 fold difference over baseline in data set [1] (CCK-8 at 1 nM) and 0.31 fold difference over baseline in data set [1] (CCK-8 at 3 nM). The concentration giving a half-maximal response (EC50) in data set [1] (EC50 of CCK-8 alone, CCK-8 alone, Fig. 5b experiment, n = 3) was 12.9 nM; in data set [1] (SD) it was 11.5 ± 1.5 nM. For the same molecule, the Emax in data set [1] was found to be 100%.
In the case of “cholecystokinin-8 (from UniProt P06307 96-103) (peptide)”, the EC50 of IP1 accumulation, CCK-8 alone (control curve of the co-treatment experiment, Fig. 5b) in data set [2] was 12.9 nM.
Take `CC[C@H](C)[C@@H]1NC(=O)[C@@H]2CSSC[C@@H]3NC(=O)[C@H](C(C)C)NC(=O)[C@H](CCCCN)NC(=O)[C@H](CCCCN)NC(=O)[C@H](CCCCN)NC(=O)[C@@H]4CSSC[C@H](NC(=O)[C@H](CO)NC(=O)[C@H](CCC(=O)O)NC(=O)CNC(=O)[C@H](CSSC[C@H](NC(=O)CNC(=O)[C@H]([C@@H](C)CC)NC(=O)[C@H](C(C)C)NC(=O)[C@H]([C@@H](C)O)NC(=O)[C@H](CO)NC1=O)C(=O)N[C@@H](CO)C(=O)N4)NC(=O)[C@@H]1CCCN1C(=O)[C@H]([C@@H](C)CC)NC(=O)[C@H](C(C)C)NC(=O)CNC(=O)[C@H](CC(N)=O)NC(=O)[C@H](CCCNC(=N)N)NC(=O)[C@H](Cc1ccc(O)cc1)NC3=O)C(=O)N[C@@H](C(C)C)C(=O)N[C@@H](Cc1ccccc1)C(=O)N[C@@H]([C@@H](C)CC)C(=O)N1CCC[C@H]1C(=O)N2` [caripe 11] (cyclo(CGESCVFIPCISTVIGCSCKKKVCYRNGVIP); disulfide 1-17, 5-19, 10-24): in data set [1] (SD), the Emax was found to be 71 ± 6.9% and a half-maximal response (EC50) required 8500 ± 1700 nM. In data set [1] (caripe 11 30 µM co-incubated with CCK-8 70 nM (EC80), Fig. S1a, n = 2), the “Reduction of the EC80 effect of CCK-8” value is ~ 20%. In addition, the “Basal activity of the CCK-8 concentration-response curve upon co-treatment” value in data set [1] (co-treatment with caripe 11 10 µM, increased from 0, Fig. 5b, n = 3) came to 17%. Also, the “Effect on HEK cell viability” value in data set [3] (caripe 11 100 µM) is listed as “slightly decreased HEK cell viability”. Further, the “Effect on HEK cell viability” value in data set [3] (caripe 11 ≤ 30 µM) is on record as “did not have a pronounced effect”.
As for cyclo(GVIPCGESCVFIPCISTVIGCSCKKKVCYRN) (also: three disulfide bonds, pairing not given here) [caripe 11], in data set [4], the EC50 of IP1 accumulation (HTRF) in HEK293 cells transiently expressing CCK2R was determined as 8500 nM and the Emax of IP1 accumulation, normalised to the maximal response of CCK-8 turned out to be 71%. Moreover, the reduction of the IP1 effect of 70 nM (EC80) CCK-8 by co-incubated caripe 11 (3, 10, 30 µM); value at 30 µM in data set [2] is 20%.

The EC50 is the concentration needed to bring the measured effect to its halfway point. Lower therefore signals a more potent agent. For orientation: Emax means the maximal effect, on the per cent scale that the assay sets.

The values are drawn from publication PMC9163038 (Scientific Reports, 2022).
